Data: patent US6989351B2, “Metabolic inhibitors against brassinosteroids” (Riken, priority 2000, dated 2006)

Assays:
[1] = system: brassinosteroid biosynthesis; assay: action on plants when used at a high concentration
From the text: Methods of application and doses of the metabolism inhibitor of the present invention can be suitably chosen by those skilled in the art depending on conditions including a purpose of application, a dosage form, a plot to be treated and the like. […] Such a phenomenon is recognized in difenoconazole, Brz217, Brz218, Brz224, Brz225 and the like, which are typical examples of the metabolism inhibitor of the present invention. Therefore, the metabolism inhibitor of the present invention is preferably applied to plants at a relatively low concentration. However, concentrations to achieve optimum action can be appropriately determined by those skilled in the art by referring to the following examples.

[2] = system: metabolism of brassinolide; assay: brassinolide metabolism in cell free system (degradation associated with oxidation of the 26th position of brassinolide); format: biochemical; conditions: cell free system from immature seeds of Pisum sativum
Description: To examine whether the accelerating activity on elongation of the cress hypocotyl was on the basis of the inhibitory activity against the metabolism of brassinolide, which is considered to be a practically active brassinosteroid, activity of the compounds was examined in degradation system associated with oxidation of the 26th position of brassinolide. Immature seeds of Pisum sativum were used as plant materials. Brassinolide was added to a cell free system, and metabolic activity was determined by quantifying the compound at the right end in the following scheme to examine inhibitory action of difenoconazole against metabolism. [drawing 6]

Structure (SMILES): CCCC1COC(Cn2cncn2)(c2ccccc2Cl)O1 (stereo not drawn) [Brz217]
- action at a high concentration, opposite to the action of the metabolism inhibitor [1]: inhibit brassinosteroid biosynthesis when used at a high concentration

Structure (SMILES): CCCC1COC(Cn2cncn2)(c2cccc(Cl)c2)O1 (stereo not drawn) [Brz218]
- action at a high concentration, opposite to the action of the metabolism inhibitor [1]: inhibit brassinosteroid biosynthesis when used at a high concentration

Structure (SMILES): CCCC1COC(Cn2cncn2)(c2ccc(OC)cc2)O1 (stereo not drawn) [Brz224]
- action at a high concentration, opposite to the action of the metabolism inhibitor [1]: inhibit brassinosteroid biosynthesis when used at a high concentration

Structure (SMILES): COCC1COC(Cn2cncn2)(c2ccc(Cl)cc2)O1 (stereo not drawn) [Brz225]
- action at a high concentration, opposite to the action of the metabolism inhibitor [1]: inhibit brassinosteroid biosynthesis when used at a high concentration

Structure (SMILES): CC1COC(Cn2cncn2)(c2ccc(Oc3ccc(Cl)cc3)cc2Cl)O1 (stereo not drawn) [Difenoconazole, difenoconazole]
- Ratio of metabolism inhibition degree (%) relative to control ([2]; 0.01 μM): 0%
- Ratio of metabolism inhibition degree (%) relative to control ([2]; 0.1 μM): 7%
- Ratio of metabolism inhibition degree (%) relative to control ([2]; 1.0 μM): 72%
- Ratio of metabolism inhibition degree (%) relative to control ([2]; 10 μM): 76%
- action at a high concentration, opposite to the action of the metabolism inhibitor [1]: inhibit brassinosteroid biosynthesis when used at a high concentration
